According to patent publication US20220331301A1, “CYSTIC FIBROSIS TRANSMEMBRANE CONDUCTANCE REGULATOR MODULATORS FOR TREATING AUTOSOMAL RESESSIVE POLYCYSTIC KIDNEY DISEASE” (The Johns Hopkins University, priority 2021, published 2022):
Entries after “also recorded” stand apart in the source; their conditions may differ.

What was measured:
fibrocystin (FPC) = assay: FPC expression in WT and Pkhd1del4/del4 cholangiocytes; type: cell-based, mice; settings: Pkhd1^del4/del4 cholangiocytes
Protocol: FIG. 1A and FIG. 1B show the expression of fibrocystin (FPC) in normal and reduced levels in Pkhd1^del4/del4 cholangiocytes. The residual level of FPC is expected in Pkhd1^del4/del4 cholangiocytes. Garcia-Gonzalez et al., 2007. VX-809 increases FPC. Columns represent the means±SEM of the FPC expression. The data were analyzed by non-parametric t-test. The experiment was repeated 3-4 times; P<0.05;
(Methods and cells provided by the Yale O'Brian Center) To create the cholangiocyte cultures PKhd1del/4/del4, Garcia-Gonzalez et al., 2007, animals were crossed with mice transgenic for the Sv40 large T Antigen (strain name SV40 T-antigen JAX strain #002233). Segments of intrahepatic bile ducts were microdissected from livers perfused via the portal vein with molten agarose containing toluidine blue to mark the veins. The liver parenchyma was stripped until the biliary tree was identified and the bile duct units were seeded onto rat type I collagen coated plates. Cells were cultured under non-permissive conditions in the following medium: DMEM/F12 with 5% fetal bovine serum, 10 μL/mL insulin-transferrin selenium, 3.4 μg/mL triiodothyronine, 50,000 U penicillin/streptomycin under humidified conditions at 37° C. in 5% CO2. After one week, the cells were cultured under permissive conditions in the presence of 10 U of interferon-γ at 33° C. in 5% CO2. […]

[1] = tested on: Pkhd1^del4/del4 cholangiocytes; assay: Cyclic AMP assay in cholangiocytes; type: cell-based, mice; settings: for cAMP levels: VX-809 (10 μM) 16 h
Protocol: The experiment was repeated four times. For all graphs, P<0.05, ***P<0.001 and ****P<0.0001;
Confluent cells were treated with VX-809 (10 μM) or DMSO for 16 h before being harvested for assay. Cyclic AMP levels were measured with a direct cAMP Enzyme Immunoassay Kit (Sigma, #CA200) according to the manufacturer's protocol. The results are expressed as pmole/mL.

CK7 = CK7 expression in cholangiocytes; type: cell-based, mice; settings: Pkhd1^del4/del4 cells
Text: (Methods and cells provided by the Yale O'Brian Center) To create the cholangiocyte cultures PKhd1del/4/del4, Garcia-Gonzalez et al., 2007, animals were crossed with mice transgenic for the Sv40 large T Antigen (strain name SV40 T-antigen JAX strain #002233). Segments of intrahepatic bile ducts were microdissected from livers perfused via the portal vein with molten agarose containing toluidine blue to mark the veins. The liver parenchyma was stripped until the biliary tree was identified and the bile duct units were seeded onto rat type I collagen coated plates. Cells were cultured under non-permissive conditions in the following medium: DMEM/F12 with 5% fetal bovine serum, 10 μL/mL insulin-transferrin selenium, 3.4 μg/mL triiodothyronine, 50,000 U penicillin/streptomycin under humidified conditions at 37° C. in 5% CO2. After one week, the cells were cultured under permissive conditions in the presence of 10 U of interferon-γ at 33° C. in 5% CO2. When confluent, cells were passaged by digesting the collagen slab below the cells (60 min; 37° C.; DMEM/F12 with 2 mg/mL dispase and 1 mg/mL collagenase type 11), then washed twice in PBS and plated onto collagen coated support systems. Clonal cell lines were generated by single cell isolation. Cells were differentiated for 10 days at 37° C. without interferon-γ for experimental use.

PC2 = assay: Western blot of PC2 protein expression in cholangiocytes; type: cell-based, mice; settings: Pkhd1del4/del4 cholangiocytes
Text: Please note the reduction of PC2 protein in Pkhd1del4/del4 cholangiocytes and the increase following VX-809 treatment;

Pkhd1 kidney cells = assay: Fura-2 Ca2+ release in renal ARPKD cell line; type: cell-based, human; settings: VX-809 (10 μM) for 16 hours
Protocol: FIG. 16A, FIG. 16B, and FIG. 16C show Ca^2+ release in a renal ARPKD cell line treated with VX-809. Intracellular Ca^2+ (F340/F380) levels were measured by ratiometric Fura-2 AM analysis of WT and Pkhd1 kidney cells treated with VX-809 (10 μM) for 16 hours. […] Amplitude was measured as the […] base to peak Δf/f. Asterisk indicates significance between the two groups. Significance between the two groups was analyzed using Student's t-test, n=5-6. ****P<0.0001.
The cells were loaded with the cell-permeant acetoxymethyl (AM) ester of the calcium indicator fura-2 (fura-2/AM) at 37° C. for 90 min. Measurements were made on a Zeiss inverted microscope equipped with a Sutter Lambda 10-2 controller and filter wheel assembly. A Zeiss FluorArc mercury lamp was used to excite the cells at 340 and 380 nm, and the emission response was measured at 510 nm. Cell fluorescence was measured in response to excitation for 1000 ms at 340 nm and 200 ms at 380 nm once every 4 s. Image acquisition, image analysis, and filter wheel control were performed with IPLab software (see Yanda et al., 2019b). […]

PC1 null mice = settings: shown previously, Yanda et al., 2018; cited from earlier work
HSP27, 70, 90 and Aha1 = assay: Western blot of chaperone expression in cholangiocytes; type: cell-based, mice; settings: Pkhd1del4/del4 cholangiocytes
Protocol: FIG. 9A, FIG. 9B, FIG. 9C, FIG. 9D and FIG. 9E show chaperone expression is altered Pkhd1del4/del4 cholangiocytes. (FIG. 9A) Representative Western blot images of HSP27, 70, 90 and Aha1 in WT and Pkhd1del4/del4 cholangiocytes treated with VX-809 as described in previous figures. (FIG. 9B, FIG. 9C, FIG. 9D and FIG. 9E) Columns represent averages±standard errors of Hsp 27, Aha1, HSP70 and HSP90 expression. Data were analyzed by non-parametric t-test. n=4 for each treated and control groups. **P. Please note the large decrease in Hsp27 and increases in Aha1, HSP70 and Hsp 90 in Pkhd1del4/del4 cholangiocytes compared to WT.
We have previously shown that CFTR-based correctors rescue ΔF508-CFTR by altering the proteostatic network of ER quality control proteins (HSPs) involved in its degradation. Lopes-Pacheco et al., 2015. […] To continue this line of investigation, we measured the steady-state levels of HSPs in Pkhd1del4/del4 cholangiocytes (FIG. 9). In the mutant cholangiocytes, HSP27 was reduced by half whereas, HSP70 was increased by 8 fold, HSP90 was by 2-fold and Aha1 by 2.5 fold.

For lumacaftor [VX-809], the FPC expression (fibrocystin (FPC)) was “increases FPC and CFTR protein levels”, the “cAMP reduction compared with inhibitor 172” value ([1]; Pkhd1del4/del4 cholangiocytes) was “reduces cAMP more effectively than the inhibitor 172” and the cAMP levels ([1]; absence of forskolin) was “reduces cAMP levels; also recorded: reduced the levels of cAMP”. The cAMP levels ([1]; presence of forskolin (100 μM) for 30 min) was “reduces cAMP levels; also recorded: reduced the levels of cAMP”, the CK7 expression (CK7) was “increased” and the PC2 protein level (PC2) was “trends back to normal; also recorded: increase”. The “resting Ca^2+” value (Pkhd1 kidney cells) was “not affected”, the “thapsigargin-induced ER Ca^2+ release” value (Pkhd1 kidney cells; thapsigargin (4 μM)) was “dramatically reduced; also recorded: significantly lowered” and the “cysts in PC1 null mice” value (PC1 null mice) was “can reduce cysts”. The Aha1 level (HSP27, 70, 90 and Aha1) was “reduced the levels; also recorded: correction toward WT values”, the HSP70 level (HSP27, 70, 90 and Aha1) was “reduced the levels; also recorded: correction toward WT values” and the HSP90 level (HSP27, 70, 90 and Aha1) was “reduced the levels; also recorded: correction toward WT values”.
